Results: patent US20240025862A1, “SUBSTITUTED N-PHENYLURACILS AND SALTS THEREOF, AND USE THEREOF AS HERBICIDAL ACTIVE SUBSTANCES” (Bayer Aktiengesellschaft, priority 2020, published 2024)

Experiments:
Type in all cases: in vivo
[1] = tested on: Amaranthus retroflexus (AMARE); assay: Post-emergence herbicidal action, greenhouse pot test; conditions: rated visually after about 3 weeks vs untreated controls, 100% = plants have died
Summary of the method: (§1)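 Greenhouse-grown weeds in sandy loam were sprayed post-emergence at the one-leaf stage, 2–3 weeks after sowing. Compounds were formulated as WP or EC in water with 0.5% additive at 600 l/ha, at rates of 20 g/ha or less. Visual rating after about 3 weeks used a scale from 0% (like untreated control) to 100% (plants dead).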

[2] = tested on: Pharbitis purpurea (PHBPU); assay: as above
Summary of the method: as §1

[3] = tested on: Veronica persica (VERPE); assay: as above
Summary of the method: as §1

[4] = tested on: Viola tricolor (VIOTR); assay: as above
Summary of the method: as §1

[5] = tested on: Polygonum convolvulus (POLCO); assay: as above
Summary of the method: as §1

[6] = tested on: Avena fatua (AVEFA); assay: as above; conditions: rated visually after about 3 weeks vs untreated controls, 100% = plants have died
Summary of the method: as §1

[7] = tested on: Abutilon theophrasti (ABUTH); assay: as above; conditions: rated visually after about 3 weeks vs untreated controls, 100% = plants have died
Summary of the method: as §1

[8] = tested on: Zea mays (ZEAMX); assay: Post-emergence crop plant compatibility, greenhouse pot test; conditions: 1.25 g/ha, vs untreated controls
Summary of the method: (§2)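 Crop plants grown in sandy loam in the greenhouse were sprayed post-emergence at the one-leaf stage, 2–3 weeks after sowing, with WP or EC formulations as aqueous suspension/emulsion plus 0.5% additive at 600 l/ha. Damage was rated visually about 3 weeks later versus untreated controls (0% = like control, 100% = plants dead).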

[9] = tested on: Triticum aestivum (TRZAS); assay: as above; conditions: vs untreated controls
Summary of the method: as §2

[10] = tested on: Oryza sativa (ORYSA); assay: Post-emergence crop plant compatibility, greenhouse pot test (also comparative test C); conditions: vs untreated controls
Summary of the method: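 Rice and other crops sprayed post-emergence at one-leaf stage (2–3 weeks after sowing) with WP or EC formulations plus 0.5% additive at 600 l/ha water. Visual rating about 3 weeks later versus untreated controls (100% = dead, 0% = like control); suffixes a–c denote different doses.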

[11] = tested on: Echinochloa crus-galli (ECHCG); assay: Post-emergence herbicidal action, greenhouse pot test (also comparative test C)
Summary of the method: (§3)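 Greenhouse pot plants in sandy loam were sprayed post-emergence at the one-leaf stage (2–3 weeks after sowing) with WP or EC formulations plus 0.5% additive at 600 l/ha water. Activity was rated visually after about 3 weeks versus untreated controls (100% = dead, 0% = like control); rates were 20 g/ha or less, and 5 g/ha or less in the comparative test.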

[12] = tested on: Matricaria inodora (MATIN); assay: as above
Summary of the method: as §3

[13] = tested on: Setaria viridis (SETVI); assay: as above
Summary of the method: as §3

[14] = tested on: Alopecurus myosuroides (ALOMY); assay: as above; conditions: rated visually after about 3 weeks vs untreated controls, 100% = plants have died
Summary of the method: as §3

Cn1c(C(F)(F)F)cc(=O)n(-c2cc(Oc3ccccc3OCC(=O)OCCOC(F)(F)F)c(C#N)cc2F)c1=O [I.9-41]
80%: Post-emergence action at 20 g/ha against AVEFA in % ([6]; 20 g/ha) | Post-emergence action against ECHCG in % ([11]; dosage 5 g/ha) | Post-emergence action at 20 g/ha against ALOMY in % ([14]; 20 g/ha)
20%: Post-emergence action against TRZAS (crop plant compatibility) ([9]; 20 g/ha)
90%: Post-emergence action against VIOTR ([4]; 1.25 g/ha) | Post-emergence action against POLCO in % ([5]; dosage 5 g/ha)
0%: Post-emergence action against TRZAS (crop plant compatibility) ([9]; 1.25 g/ha) | Post-emergence action against ORYSA (crop plant compatibility) ([10]; 1.25 g/ha) | Post-emergence action against ORYSA (crop plant compatibility) ([10]; 5 g/ha)
10%: Post-emergence action against ZEAMX (crop plant compatibility) [8] | Post-emergence action against TRZAS (crop plant compatibility) ([9]; 5 g/ha)
100%: Post-emergence action at 1.25 g/ha against AMARE in % ([1]; 1.25 g/ha) | Post-emergence action at 5 g/ha against AMARE in % ([1]; 5 g/ha) | Post-emergence action at 20 g/ha against AMARE in % ([1]; 20 g/ha) | Post-emergence action against PHBPU in % ([2]; dosage 1.25 g/ha) | Post-emergence action against PHBPU in % ([2]; dosage 5 g/ha) | Post-emergence action against PHBPU in % ([2]; dosage 20 g/ha) | Post-emergence action against VERPE ([3]; 5 g/ha) | Post-emergence action against VERPE ([3]; 20 g/ha) | Post-emergence action against VIOTR ([4]; 5 g/ha) | Post-emergence action against VIOTR ([4]; 20 g/ha) | Post-emergence action against POLCO in % ([5]; dosage 20 g/ha) | Post-emergence action at 1.25 g/ha against ABUTH in % ([7]; 1.25 g/ha) | Post-emergence action at 5 g/ha against ABUTH in % ([7]; 5 g/ha) | Post-emergence action at 20 g/ha against ABUTH in % ([7]; 20 g/ha) | Post-emergence action against ECHCG in % ([11]; dosage 20 g/ha) | Post-emergence action against MATIN in % ([12]; dosage 1.25 g/ha) | Post-emergence action against MATIN in % ([12]; dosage 5 g/ha) | Post-emergence action against MATIN in % ([12]; dosage 20 g/ha) | Post-emergence action against SETVI ([13]; 20 g/ha) | Post-emergence action against SETVI in % ([13]; dosage 1.25 g/ha) | Post-emergence action against SETVI in % ([13]; dosage 5 g/ha)

Cn1c(C(F)(F)F)cc(=O)n(-c2cc(Oc3ccccc3OCC(=O)OCC#N)c(C#N)cc2F)c1=O [I.9-176, Cyanomethyl (2-{2-cyano-4-fluoro-5-[3-methyl-2,6-dioxo-4-(trifluoromethyl)-3,6-dihydropyrimidin-1(2H)-yl]phenoxy}phenoxy)acetate]
20%: Post-emergence action against TRZAS (crop plant compatibility) ([9]; 5 g/ha) | Post-emergence action against ORYSA (crop plant compatibility) ([10]; 5 g/ha)
100%: pest or weed control at 1.25 g/ha ([1]; Amaranthus retroflexus, 504 h, 1.25 g/ha, read-out: Post-emergence action at 1.25 g/ha against AMARE in %) | pest or weed control at 5 g/ha ([1]; Amaranthus retroflexus, 504 h, 5 g/ha, read-out: Post-emergence action at 5 g/ha against AMARE in %) | pest or weed control at 20 g/ha ([1]; Amaranthus retroflexus, 504 h, 20 g/ha, read-out: Post-emergence action at 20 g/ha against AMARE in %) | pest or weed control at 5 g/ha ([2]; Ipomoea purpurea, 504 h, dosage 5 g/ha, read-out: Post-emergence action against PHBPU in %) | pest or weed control at 20 g/ha ([2]; Ipomoea purpurea, 504 h, dosage 20 g/ha, read-out: Post-emergence action against PHBPU in %) | pest or weed control at 1.25 g/ha ([3]; Veronica persica, 504 h, 1.25 g/ha, read-out: Post-emergence action against VERPE) | pest or weed control at 5 g/ha ([3]; Veronica persica, 504 h, 5 g/ha, read-out: Post-emergence action against VERPE) | pest or weed control at 20 g/ha ([3]; Veronica persica, 504 h, 20 g/ha, read-out: Post-emergence action against VERPE) | pest or weed control at 1.25 g/ha ([4]; Viola tricolor, 504 h, 1.25 g/ha, read-out: Post-emergence action against VIOTR) | pest or weed control at 5 g/ha ([4]; Viola tricolor, 504 h, 5 g/ha, read-out: Post-emergence action against VIOTR) | pest or weed control at 20 g/ha ([4]; Viola tricolor, 504 h, 20 g/ha, read-out: Post-emergence action against VIOTR) | pest or weed control at 20 g/ha ([5]; Fallopia convolvulus, 504 h, dosage 20 g/ha, read-out: Post-emergence action against POLCO in %) | pest or weed control at 1.25 g/ha ([7]; Abutilon theophrasti, 504 h, 1.25 g/ha, read-out: Post-emergence action at 1.25 g/ha against ABUTH in %) | pest or weed control at 5 g/ha ([7]; Abutilon theophrasti, 504 h, 5 g/ha, read-out: Post-emergence action at 5 g/ha against ABUTH in %) | pest or weed control at 20 g/ha ([7]; Abutilon theophrasti, 504 h, 20 g/ha, read-out: Post-emergence action at 20 g/ha against ABUTH in %) | Post-emergence action at 1.25 g/ha against ECHCG in % ([11]; 1.25 g/ha, rated visually after about 3 weeks vs untreated controls, 100% = plants have died) | pest or weed control at 5 g/ha ([11]; Echinochloa crus-galli, 504 h, dosage 5 g/ha, read-out: Post-emergence action against ECHCG in %) | pest or weed control at 20 g/ha ([11]; Echinochloa crus-galli, 504 h, dosage 20 g/ha, read-out: Post-emergence action against ECHCG in %) | pest or weed control at 5 g/ha ([12]; Tripleurospermum inodorum, 504 h, dosage 5 g/ha, read-out: Post-emergence action against MATIN in %) | pest or weed control at 20 g/ha ([12]; Tripleurospermum inodorum, 504 h, dosage 20 g/ha, read-out: Post-emergence action against MATIN in %) | pest or weed control at 20 g/ha ([13]; Setaria viridis, 504 h, 20 g/ha, read-out: Post-emergence action against SETVI) | pest or weed control at 1.25 g/ha ([13]; Setaria viridis, 504 h, dosage 1.25 g/ha, read-out: Post-emergence action against SETVI in %) | pest or weed control at 5 g/ha ([13]; Setaria viridis, 504 h, dosage 5 g/ha, read-out: Post-emergence action against SETVI in %) | pest or weed control at 5 g/ha ([14]; Alopecurus myosuroides, 504 h, 5 g/ha, read-out: Post-emergence action at 5 g/ha against ALOMY in %) | pest or weed control at 20 g/ha ([14]; Alopecurus myosuroides, 504 h, 20 g/ha, read-out: Post-emergence action at 20 g/ha against ALOMY in %)
0%: Post-emergence action against ZEAMX (crop plant compatibility) [8] | Post-emergence action against TRZAS (crop plant compatibility) ([9]; 1.25 g/ha) | Post-emergence action against ORYSA (crop plant compatibility) ([10]; 1.25 g/ha)
80%: Post-emergence action at 5 g/ha against AVEFA in % ([6]; 5 g/ha) | pest or weed control at 20 g/ha ([6]; Avena fatua, 504 h, 20 g/ha, read-out: Post-emergence action at 20 g/ha against AVEFA in %)
